One block for each molecule: values may come before it. Square brackets hold non-standard residues; d marks the D form. Peptide text beside a SMILES is read from it. ξ: configuration not given here. Oic = O=C(O)[C@@H]1C[C@@H]2CCCC[C@@H]2N1; d2Nal = N[C@H](Cc1ccc2ccccc2c1)C(=O)O; Hyp = O=C(O)[C@@H]1C[C@@H](O)CN1; 2Thi = N[C@@H](Cc1cccs1)C(=O)O; Gly(N-cHex) = O=C(O)CNC1CCCCC1; ξαMeF = CC(N)(Cc1ccccc1)C(=O)O; Orn = NCCC[C@H](N)C(=O)O; βAla = NCCC(=O)O; Mpa = O=C(O)CCS
Tests used:
[1] = molecular target: T1, human kinin B2R (Homo sapiens, UniProt P30411); test: Competition binding assay on HEK293 cells stably expressing human kinin B2R, radioligand [3H]BK; conditions: displacement of [3H]BK, read-out: hB2R IC50
T1 construct: expressed in transfected cells
T1 sequence (P30411 1-391): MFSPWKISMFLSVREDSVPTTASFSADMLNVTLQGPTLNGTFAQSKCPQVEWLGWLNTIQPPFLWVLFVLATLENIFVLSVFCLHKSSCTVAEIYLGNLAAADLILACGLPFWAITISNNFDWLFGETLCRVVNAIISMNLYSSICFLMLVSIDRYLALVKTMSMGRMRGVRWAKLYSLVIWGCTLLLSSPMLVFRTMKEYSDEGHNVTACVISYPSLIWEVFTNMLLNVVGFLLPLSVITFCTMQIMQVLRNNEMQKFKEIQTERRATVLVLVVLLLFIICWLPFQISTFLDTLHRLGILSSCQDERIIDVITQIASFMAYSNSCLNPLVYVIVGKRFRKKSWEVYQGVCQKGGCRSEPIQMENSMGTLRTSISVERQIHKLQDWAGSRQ
Protocol: (§1) Competition binding assays were carried out essentially as described previously. Briefly, HEK293 cells stably expressing either human kinin B1R or B2R were grown in 24-well plates and incubated with 4 nM [^3H]Lys[[…]]desArg^9BK (for B1R) or with 1 nM [^3H]BK/well (for B2R) in serum-free DMEM for 1-2 h in the absence or presence of increasing concentrations of competitors ([…]-10^-5 M for peptides; 10^-10-10^-4 g/mL for peptides-coupled NPs). Radioactivity of samples was measured by a β-scintillation counter (PerkinElmer, Woodbridge, ON, Canada). Binding affinities of compounds were expressed in terms of IC50 values-the concentrations of competing compounds (i.e., free peptides, TMC-peptides conjugates and peptides coupled to NPs) causing 50% displacement of specific binding of the radioligand. Data are means of 2-3 independent experiments.

[2] = molecular target: T2, human kinin B1R (Homo sapiens, UniProt P46663); test: Competition binding assay on HEK293 cells stably expressing human kinin B1R, radioligand [3H]Lys[Leu8]desArg9BK; conditions: displacement of radioligand, read-out: hB1R IC50
T2 construct: expressed in transfected cells
T2 sequence (P46663 1-353): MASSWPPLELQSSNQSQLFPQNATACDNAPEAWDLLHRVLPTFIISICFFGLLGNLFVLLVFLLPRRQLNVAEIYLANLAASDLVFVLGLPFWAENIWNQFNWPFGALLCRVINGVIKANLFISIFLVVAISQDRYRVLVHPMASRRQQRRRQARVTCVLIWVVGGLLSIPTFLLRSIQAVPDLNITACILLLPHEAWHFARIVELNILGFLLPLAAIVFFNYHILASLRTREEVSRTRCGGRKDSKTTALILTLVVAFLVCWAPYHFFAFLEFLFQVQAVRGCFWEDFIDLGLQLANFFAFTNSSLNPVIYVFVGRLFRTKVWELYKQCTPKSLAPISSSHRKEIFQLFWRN
Protocol: as §1

[3] = design: method as in PMID 30837797; conditions: in rodents; cited from earlier work

IC50 [1]: 1180 nM
Molecule: N=C(N)NCCC[C@H](NC(=O)[C@H](Cc1cccs1)NC(=O)CN(C(=O)[C@H](CO)NC(=O)[C@H](Cc1cccs1)NC(=O)CNC(=O)[C@@H]1C[C@@H](O)CN1C(=O)[C@@H]1CCCN1C(=O)[C@H](CCCNC(=N)N)NC(=O)CCNC(=O)CCS)C1CCCCC1)C(=O)O [MAB7053, Mpa-βAla-Arg-Pro-Hyp-Gly-Thi-Ser-^NChg-Thi-Arg-OH] ([Mpa][βAla]RP[Hyp]G[2Thi]S[Gly(N-cHex)][2Thi]R-OH)

IC50 [2]: 0.8 nM
Molecule: N=C(N)NCCC[C@H](NC(=O)[C@H](CCCCN)NC(=O)CCNC(=O)CCS)C(=O)N1CCC[C@H]1C(=O)N1CCC[C@H]1C(=O)NCC(=O)N[C@@H](Cc1ccccc1)C(=O)N[C@@H](CO)C(=O)N1CCC[C@H]1C(=O)N[C@H](Cc1ccccc1)C(=O)O [MAB7108, Mpa-βAla-Lys-Arg-Pro-Pro-Gly-Phe-Ser-Pro-DPhe-OH]

IC50 [2]: 10 nM
Molecule: CC[C@H](C)[C@H](NC(=O)[C@@H](Cc1ccc2ccccc2c1)NC(=O)[C@H](CO)NC(=O)C(C)(Cc1ccccc1)NC(=O)CNC(=O)[C@@H]1CCCN1C(=O)[C@@H]1C[C@@H]2CCCC[C@@H]2N1C(=O)[C@H](CCCNC(=N)N)NC(=O)[C@H](CCCN)NC(=O)CCNC(=O)CCS)C(=O)O (stereo partly drawn) [MAB7122, Mpa-βAla-Orn-Arg-Oic-Pro-Gly-(αMe)Phe-Ser-DβNal-Ile-OH] ([Mpa][βAla][Orn]R[Oic]PG[ξαMeF]S[d2Nal]I-OH)

Further lines, the molecule ahead of its results:

Molecule: CNCC(=O)N[C@@H](CCCCN)C(=O)N[C@@H](CCCNC(=N)N)C(=O)N1CCC[C@H]1C(=O)N1CCC[C@H]1C(=O)NCC(=O)N[C@@H](Cc1ccccc1)C(=O)N[C@@H](CO)C(=O)N1CCC[C@H]1C(=O)N[C@H](Cc1ccccc1)C(=O)O [NG29, Sar-Lys-Arg-Pro-Pro-Gly-Phe-Ser-Pro-DPhe-OH]
IC50 [2]: 0.5 nM
IC50 [1]: > 10000 nM

Molecule: N=C(N)NCCC[C@H](NC(=O)[C@H](Cc1cccs1)NC(=O)CN(C(=O)[C@H](CO)NC(=O)[C@H](Cc1cccs1)NC(=O)CNC(=O)[C@@H]1C[C@@H](O)CN1C(=O)[C@@H]1CCCN1C(=O)[C@@H](N)CCCNC(=N)N)C1CCCCC1)C(=O)O [NG291, H-Arg-Pro-Hyp-Gly-Thi-Ser-^NChg-Thi-Arg-OH] (H-RP[Hyp]G[2Thi]S[Gly(N-cHex)][2Thi]R-OH)
IC50 [2]: > 10000 nM
IC50 [1]: 2 nM

Molecule: CC[C@H](C)[C@H](NC(=O)[C@@H](Cc1ccc2ccccc2c1)NC(=O)[C@H](CO)NC(=O)C(C)(Cc1ccccc1)NC(=O)CNC(=O)[C@@H]1CCCN1C(=O)[C@@H]1C[C@@H]2CCCC[C@@H]2N1C(=O)[C@H](CCCNC(=N)N)NC(=O)[C@H](CCCN)NC(C)=O)C(=O)O (stereo partly drawn) [R954, AcOrn-Arg-Oic-Pro-Gly-(αMe)Phe-Ser-DβNal-Ile-OH] (Ac-[Orn]R[Oic]PG[ξαMeF]S[d2Nal]I-OH)
IC50 [2]: 2 nM
IC50 [1]: > 10000 nM

Molecule: TRIOZAN™-MAB7053: TRIOZAN (trimethyl chitosan) conjugated with 7 equivalents of B2R agonist peptide MAB7053 (RPPGXSXXR; Residue 3 is Hyp (trans-4-hydroxy-L-Pro); residues 5 and 8 are Thi (alpha-(2-thienyl)-L-Ala); residue 7 is N-cyclohexyl-Gly; free C-terminal acid; N-terminal Mpa-betaAla spacer, thioether-linked via M)
IC50 [1]: 10600 nM

B1: ANX-005: C1q function blocking humanized IgG4 mAb (Annexon Biosciences) (antibody, chains of the INN, looked up, V domains shown)
VH: QVQLVQSGAELKKPGASVKVSCKSSGYHFTSYWMHWVKQAPGQGLEWIGVIHPNSGSINYNEKFESRVTITVDKSTSTAYMELSSLRSEDTAVYYCAGERDSTEVLPMDYWGQGTTVTVSS
VL: DVQITQSPSSLSASLGERATINCRASKSINKYLAWYQQKPGKAPKLLIYSGSTLQSGIPARFSGSGSGTDFTLTISSLEPEDFAMYYCQQHNEYPLTFGQGTKLEIK
half-life (t½) [3]: ~ 18 h

Source: article PMC10343654, “Evaluation of Novel B1R/B2R Agonists Containing TRIOZAN™ Nanoparticles for Targeted Brain Delivery of Antibodies in a Mouse Model of Alzheimer Disease” (Molecules, 2023)
